Measurements reported in patent publication US12643867B2, “Compositions and uses thereof” (University of Virginia Patent Foundation, priority 2017, dated 2026).

Key:
Assay in all cases: SILAC LC-MS ATP acyl phosphate probe competition, native kinases in HEK293T
Assay type in all cases: binding
[1] = molecular target: T1, PAN3 (PAB-dependent poly(A)-specific ribonuclease subunit) (Homo sapiens, UniProt Q58A45); settings: site ATP; ATP 1 mM; Ketanserin, Ritanserin 100 μM; RF001 1 mM
T1 construct: Native kinases; endogenous in cells; host or cells: HEK293T soluble proteome
T1 sequence (Q58A45 1-887): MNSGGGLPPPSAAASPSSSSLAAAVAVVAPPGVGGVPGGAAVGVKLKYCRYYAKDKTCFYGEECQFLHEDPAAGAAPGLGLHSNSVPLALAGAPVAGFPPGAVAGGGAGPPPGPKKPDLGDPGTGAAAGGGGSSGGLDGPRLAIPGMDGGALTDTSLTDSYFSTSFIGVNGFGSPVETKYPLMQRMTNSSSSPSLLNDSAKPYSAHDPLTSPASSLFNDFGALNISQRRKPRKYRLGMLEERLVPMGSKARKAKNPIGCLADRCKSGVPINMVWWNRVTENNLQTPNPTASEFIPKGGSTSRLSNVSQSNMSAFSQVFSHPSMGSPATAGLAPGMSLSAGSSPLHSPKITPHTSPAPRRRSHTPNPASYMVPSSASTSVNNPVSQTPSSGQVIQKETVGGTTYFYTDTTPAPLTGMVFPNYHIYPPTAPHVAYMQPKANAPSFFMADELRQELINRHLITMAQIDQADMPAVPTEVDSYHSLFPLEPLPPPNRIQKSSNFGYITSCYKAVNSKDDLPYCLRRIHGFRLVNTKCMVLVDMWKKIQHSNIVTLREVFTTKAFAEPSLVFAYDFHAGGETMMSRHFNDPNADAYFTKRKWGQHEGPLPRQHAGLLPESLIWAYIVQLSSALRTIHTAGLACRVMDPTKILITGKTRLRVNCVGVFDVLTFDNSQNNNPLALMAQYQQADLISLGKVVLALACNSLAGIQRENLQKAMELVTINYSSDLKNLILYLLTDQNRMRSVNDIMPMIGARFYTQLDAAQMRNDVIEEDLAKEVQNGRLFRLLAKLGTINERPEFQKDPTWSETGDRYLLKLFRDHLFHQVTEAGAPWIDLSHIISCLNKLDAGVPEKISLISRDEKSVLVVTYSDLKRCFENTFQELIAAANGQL
Outline: (§1)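 First, HEK293T proteomes at 2 mg/ml in kinase buffer were exposed to compound (heavy) or DMSO (light) for 30 min at 25° C. Next, samples were pooled 1:1 and trypsin/Lys-C digested. Finally, desthiobiotin peptides were enriched on avidin and measured by data-dependent LC-MS/MS.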

[2] = molecular target: T2, KCC1D (Calcium/calmodulin-dependent protein kinase type 1D) (Homo sapiens, UniProt Q8IU85); settings: site Lys1; ATP 1 mM; Ketanserin, Ritanserin 100 μM; RF001 1 mM
T2 construct: measured against >50 native kinases quantified in HEK293T soluble proteomes; endogenous in cells; host or cells: HEK293T soluble proteome
T2 sequence (Q8IU85 whole entry): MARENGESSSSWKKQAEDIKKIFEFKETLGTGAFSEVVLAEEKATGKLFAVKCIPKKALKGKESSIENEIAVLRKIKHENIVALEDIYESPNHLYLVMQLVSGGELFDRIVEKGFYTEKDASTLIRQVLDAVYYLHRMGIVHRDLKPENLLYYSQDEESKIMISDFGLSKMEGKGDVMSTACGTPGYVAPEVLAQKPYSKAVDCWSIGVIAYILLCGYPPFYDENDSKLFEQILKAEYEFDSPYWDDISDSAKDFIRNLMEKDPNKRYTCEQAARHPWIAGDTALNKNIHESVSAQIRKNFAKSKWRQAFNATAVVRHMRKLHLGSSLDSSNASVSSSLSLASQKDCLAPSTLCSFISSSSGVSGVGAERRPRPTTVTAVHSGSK
Outline: as §1

[3] = molecular target: T3, KS6A1 (Ribosomal protein S6 kinase alpha 1) (Homo sapiens, UniProt Q15418); settings: site ACT; ATP 1 mM; Ketanserin, Ritanserin 100 μM; RF001 1 mM
T3 construct: measured against >50 native kinases quantified in HEK293T soluble proteomes; endogenous in cells; host or cells: HEK293T soluble proteome
T3 sequence (Q15418 whole entry): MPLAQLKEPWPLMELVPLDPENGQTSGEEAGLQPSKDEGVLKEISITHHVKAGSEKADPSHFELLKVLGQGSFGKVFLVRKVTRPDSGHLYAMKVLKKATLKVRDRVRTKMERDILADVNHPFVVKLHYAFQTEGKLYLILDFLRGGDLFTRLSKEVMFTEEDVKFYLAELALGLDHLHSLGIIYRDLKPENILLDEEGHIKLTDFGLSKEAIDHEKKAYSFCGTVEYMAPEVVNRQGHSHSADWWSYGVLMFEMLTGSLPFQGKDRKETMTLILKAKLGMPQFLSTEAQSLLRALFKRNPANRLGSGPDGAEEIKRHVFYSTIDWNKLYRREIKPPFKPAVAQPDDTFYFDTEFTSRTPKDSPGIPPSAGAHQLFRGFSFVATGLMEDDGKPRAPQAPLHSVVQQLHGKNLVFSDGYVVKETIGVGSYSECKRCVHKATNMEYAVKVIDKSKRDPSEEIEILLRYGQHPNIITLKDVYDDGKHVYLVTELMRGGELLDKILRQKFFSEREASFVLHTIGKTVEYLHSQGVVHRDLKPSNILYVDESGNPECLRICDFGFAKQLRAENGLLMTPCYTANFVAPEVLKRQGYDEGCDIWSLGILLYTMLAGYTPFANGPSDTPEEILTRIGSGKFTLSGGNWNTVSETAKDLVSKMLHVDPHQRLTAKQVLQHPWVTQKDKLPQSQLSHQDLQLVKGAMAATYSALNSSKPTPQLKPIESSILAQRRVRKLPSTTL
Outline: as §1

[4] = molecular target: T4, CHK2 (Serine/threonine-protein kinase Chk2) (Homo sapiens, UniProt O96017); settings: for SILAC ratio, CHK2 probe-modified peptide: site Lys1, ATP 1 mM, Ketanserin, Ritanserin 100 μM, RF001 1 mM
T4 construct: measured against >50 native kinases quantified in HEK293T soluble proteomes; endogenous in cells; host or cells: HEK293T soluble proteome
T4 sequence (O96017 whole entry): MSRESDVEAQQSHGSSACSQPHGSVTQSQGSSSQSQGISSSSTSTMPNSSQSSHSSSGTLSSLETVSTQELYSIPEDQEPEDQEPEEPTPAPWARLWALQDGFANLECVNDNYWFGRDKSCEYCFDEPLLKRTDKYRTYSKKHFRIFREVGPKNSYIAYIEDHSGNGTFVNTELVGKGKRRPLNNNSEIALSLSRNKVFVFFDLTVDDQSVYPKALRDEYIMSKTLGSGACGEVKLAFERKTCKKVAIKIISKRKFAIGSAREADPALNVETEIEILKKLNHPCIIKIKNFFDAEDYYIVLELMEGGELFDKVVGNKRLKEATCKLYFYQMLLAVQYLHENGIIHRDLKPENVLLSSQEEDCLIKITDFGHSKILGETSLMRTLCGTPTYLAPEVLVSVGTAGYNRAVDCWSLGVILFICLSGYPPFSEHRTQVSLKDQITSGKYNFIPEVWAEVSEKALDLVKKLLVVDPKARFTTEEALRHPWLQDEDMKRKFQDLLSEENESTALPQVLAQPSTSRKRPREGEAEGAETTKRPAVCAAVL
Outline: as §1

| SILAC ratio, PAN3 probe-modified peptide [1] | SILAC ratio, KCC1D probe-modified peptide [2] | SILAC ratio, KS6A1 probe-modified peptide [3] | SILAC ratio, CHK2 probe-modified peptide [4] | CHK2 ATP acyl-phosphate labeling response (words, FIG. 20) ([4]; H82 and HEK293T, 1 mM RF001) | SMILES |
| --- | --- | --- | --- | --- | --- |
| 1.3 | 1.5 | 1.4 | 1.6 | – | O=C(c1ccc(F)cc1)C1CCN(CCn2c(=O)[nH]c3ccccc3c2=O)CC1 [Ketanserin] |
| 1.3 | 1.1 | 1.3 | 0.2 | activator of CHK2 | Fc1ccc(C(=C2CCNCC2)c2ccc(F)cc2)cc1 [RF001, 4-(Bis(4-fluorophenyl)methylene) piperidine] |

| SMILES | SILAC ratio, PAN3 probe-modified peptide [1] | SILAC ratio, KCC1D probe-modified peptide [2] | SILAC ratio, KS6A1 probe-modified peptide [3] | SILAC ratio, CHK2 probe-modified peptide [4] | CHK2 ATP acyl-phosphate labeling response (words, FIG. 20) ([4]; H82 and HEK293T, 1 mM RF001) |
| --- | --- | --- | --- | --- | --- |
| Cc1nc2sccn2c(=O)c1CCN1CCC(=C(c2ccc(F)cc2)c2ccc(F)cc2)CC1 [Ritanserin] | 1.8 | 2.3 | 2.1 | 2.2 | – |
